Test results: patent US11731977B2, “SGC stimulators” (Cyclerion Therapeutics, Inc., priority 2016, dated 2023)
Where two headings read alike, the source gives them in different places.

What was measured:
[1] = Rat cerebrospinal fluid (CSF) pharmacokinetic properties (Example 4); type: in vivo; settings: male, Sprague-Dawley
Description: Protocol PK in rats was determined following oral dosing. For the oral (PO) experiments, a group of 6 male Sprague-Dawley rats with an indwelling catheter placed in the cistema magna were used. The PO group was dosed with 10 mg/kg or 1 mg/kg of a compound formulated as a solution in PEG400. PO doses were administered by oral gavage and delivered to the stomach using a syringe and gavage tube. Following oral dosage administration, the gavage tube was flushed with approximately 0.5 mL of water to ensure complete delivery of the full dose.
Plasma samples were collected as follows: samples of CSF and blood were collected at 1 hour, 2, and optionally at 4 hours post-dosing. CSF samples (0.05 mL) were collected through the intracisternal catheter. Blood samples (0.25 mL) were collected through retro-orbital sampling. These samples were kept on ice until processed for plasma. Blood samples were centrifuged at 3200 rpm for 5 minutes at approximately 5° C. within 1 hour of collection. Plasma was directly transferred to a 96-well plate tube (0.125 mL). Plug caps were placed on the tubes and the tubes frozen at approximately −70° C. and stored until analysis. Plasma was collected and analyzed for the presence of a compound.
Quantitation of Compounds. The compound in question and the internal standard were extracted from plasma and CSF by precipitation. Samples were analyzed using liquid chromatography (LC) with tandem mass spectrometric detection (MS/MS) using electrospray ionization. The standard curve range was from 1 to 1000 ng/mL. Results of the compounds described herein in this assay are illustrated in Table 4a below (10 mg/kg dose) and Tables 4b and 4c below (1 mg/kg).
Kp,uu is defined as the concentration ratio of unbound drug in CSF to unbound drug in plasma. Unbound drug in plasma (or free plasma concentration) is calculated by multiplying the total plasma concentration by the unbound fraction as determined by plasma protein binding. The CSF concentration is then divided by the free plasma concentration to determine the Kp,uu. (See e.g., Di et al., J. Med. Chem., 56, 2-12 (2013))

male Long Evans rats = test: Novel Object Recognition (NOR) test, MK-801-induced memory disruption (Example 10); type: in vivo, rat; settings: for reversal of MK-801-induced memory deficits (Recognition Index): Galantamine 1 mg/kg, vs Vehicle/MK-801; for Recognition Index, Mean: 0 to 3 minute time bin
Text: Objective. To assess the efficacy of compounds of the invention in reversing memory disruption induced by MK-801 using the Novel Object Recognition (NOR) test in male Long Evans rats. The NOR is a test of recognition learning and memory retrieval, which takes advantage of the spontaneous preference of rodents to investigate a novel object compared with a familiar one (Ennaceur and Delacour, 1988). […] The NOR test has been employed extensively to assess the potential cognitive-enhancing properties of novel test compounds. […] In the present study, a memory saving model was used to test the novel compound—MK-801 (Dizocilpine), an uncompetitive antagonist of the NMD A receptor was used to cause deficit of recognition memory. Compounds of the invention were evaluated through its efficacy in reversing memory impairment.
Animals. Adult male Long-Evans rats (275-299 gram at arrival from Envigo, Indianapolis, Ind.) were used in this study. Rats were placed in the experimental rooms and assigned unique identification numbers (tail marks). Rats were housed 2 per cage in polycarbonate cages with filter tops and acclimated for at least 7 days prior to testing. Animal room was maintained in a 12/12 h light/dark cycle (lights on at 07.00 EST), 22±1° C. and relative humidity at approximately 50%. Food and water were provided ad libitum. All animals were examined, handled and weighed prior to the study to assure adequate health and to minimize the non-specific stress associated with testing. Each animal was randomly assigned across the treatment groups. The experiments were conducted during the animal's light cycle phase.
MK-801 (0.1 mg/kg; Sigma-Aldrich) was dissolved in saline and injected IP 15 min prior to NOR training.
Galantamine (1 mg/kg; Tocris) was dissolved in saline and injected IP 15 minutes prior to training.
Compound I-1 (0.01, 0.1, and 1 mg/kg) was oral administrated 60 minutes prior to training. The dose volume was 4 ml/kg
Experimental procedures. NOR test was conducted in an open-field arena (40×40 cm) placed in a sound-attenuated room under dimmed lighting. Each rat was tested separately and care was taken to remove olfactory/taste cues by cleaning the arena and test objects with 70% alcohol between trials and rats. All training and testing trials were video-taped and scored by an observer blind to treatments.
On Days 1 and 2, rats were allowed to freely explore the arena (no objects inside) for a 5-minute habituation period. On Day 3 (training and testing day), rats were administered vehicle (saline), galantamine or compound solutions followed by MK-801 or vehicle (saline). After the pretreatment time, each animal was placed into the test arena in the presence of two identical objects. Each rat was placed in the arena facing the same direction at the same position, and the time spent actively exploring the objects during a 3-minute training period (T1) was recorded. The rat was returned to its home cage following training. NOR test (T2) was conducted 1 hours after T1. Each rat was placed back into the test arena in the presence of one familiar object and one novel object for 5 minutes, and the time spent exploring both objects was recorded during 0-1, 0-3 and 0-5 min time ranges. The presentation order and position of the objects (left/right) in T2 was randomized between rats to prevent bias from order or place preference.
Statistical Analysis. Data of NOR test (T2) were expressed as Recognition Index, which is defined as the ratio of the time spent exploring the novel object over the total time spent exploring both objects (Novel/(Familiar+Novel)×100%) during the test session. Data were analyzed by using one-way ANOVA followed by Fisher's LSD post hoc test on 0-1, 0-3 and 0-5 minute time range separately, with significance set at P<0.05. […] And then statistical outliers that fell above or below two standard deviations from the mean were removed from the final analysis. […]

rats = test: Acute and tonic pain: formalin test, score (Example 13); type: in vivo, rat; settings: Compound I-1 p.o. 10 mg/kg, 120 minutes after treatment
Description: Formalin Test. 2.5% formalin solution was injected by subplantar route into the right hind paw. Scoring of pain behavior was performed in rats for 36 minutes every 3 minutes according to the following scores:
0=normal behavior of the injected hind limb to support the body
1=slight touching of the injected paw on the floor to lightly support or not support the body
2=total withdrawal of the injected paw
3=licking, biting or shaking of the injected paw

[2] = 10 mg/kg PO, 1 h, unbound CSF/unbound plasma, read-out: Kp,uu (@ 1 h)
[3] = CSF, 10 mg/kg PO, 1 h, read-out: CSF Conc. (nM @ 1 h)

Row | SMILES | Kp uu at 1 h [1, 2] | concentration at 1 h [1, 3] [nM] | further results
1 | Fc1ccccc1Cc1nc(-c2nc(C(F)(F)F)n[nH]2)cn2ccnc12 [Compound I-1, 8-(2-fluorobenzyl)-6-(3-(trifluoromethyl)-1H-1,2,4-triazol-5-yl)imidazo[1,2-a]pyrazine] | 0.9 | 210 | Kp uu at 1 h ([1]; CSF / unbound plasma, 1 mg/kg PO, @ 1 h, read-out: Kp,uu): 1; Kp uu at 2 h ([1]; CSF / unbound plasma, 1 mg/kg PO, @ 2 h): 1.4; Kp uu at 4 h ([1]; CSF / unbound plasma, 1 mg/kg PO, @ 4 h): 1.9; concentration at 1 h ([1]; CSF, 1 mg/kg PO, @ 1 h, read-out: CSF Conc.): 21 nM; concentration at 2 h ([1]; CSF, 1 mg/kg PO, @ 2 h, read-out: CSF Conc.): 35 nM; concentration at 4 h ([1]; CSF, 1 mg/kg PO, @ 4 h, read-out: CSF Conc.): 39 nM; reversal of MK-801-induced memory deficits (Recognition Index) (male Long Evans rats; 0-1 min time range, Compound I-1 1 mg/kg): significantly reversed; reversal of MK-801-induced memory deficits (Recognition Index) (male Long Evans rats; 0-3 minute time range, Compound I-1 0.1 and 1 mg/kg): significantly reversed; reversal of MK-801-induced memory deficits (Recognition Index) (male Long Evans rats; 0-5 minute time range, Compound I-1 1 mg/kg): significantly reversed; Recognition Index, Mean (male Long Evans rats; I-1 (0.1 mg/kg) oral + MK-801): 60.1%; Recognition Index, Mean (male Long Evans rats; I-1 (1 mg/kg) oral + MK-801): 64.8%; Recognition Index, Mean (male Long Evans rats; I-1 (10 mg/kg) oral + MK-801): 66.8%; % of activity vs. vehicle (rats; Formalin test - score (early phase)): 57%; % of activity vs. vehicle (rats; Formalin test - score (late phase)): 32%
2 | Fc1cccc(Cc2nc(-c3nc(C(F)(F)F)n[nH]3)cn3ccnc23)c1 [Compound I-2, 8-(3-Fluorobenzyl)-6-(3-(trifluoromethyl)-1H-1,2,4-triazol-5-yl)imidazo[1,2-a]pyrazine] | 0.9 | 59 | 
3 | Fc1cccc(Cc2nc(-c3nc(C(F)F)n[nH]3)cn3ccnc23)c1 [Compound I-3, 6-(3-(Difluoromethyl)-1H-1,2,4-triazol-5-yl)-8-(3-fluorobenzyl)imidazo[1,2-a]pyrazine] | 0.8 | 6 | 
4 | Fc1cccc(Cc2nc(-c3nc(C(F)(F)F)n[nH]3)cn3ccnc23)c1F [Compound I-10, 8-(2,3-Difluorobenzyl)-6-(3-(trifluoromethyl)-1H-1,2,4-triazol-5-yl)imidazo[1,2-a]pyrazine] | 3.1 | 108 | 
5 | Fc1cccc(Cc2nc(-c3nc(C(F)F)n[nH]3)cn3ccnc23)c1F [Compound I-11, 8-(2,3-Difluorobenzyl)-6-(3-(difluoromethyl)-1H-1,2,4-triazol-5-yl)imidazo[1,2-a]pyrazine] | 2.1 | 72 | 
6 | Fc1ccccc1Cc1nc(-c2nc(C(F)F)n[nH]2)cn2ccnc12 [Compound I-14, 8-(2-Fluorobenzyl)-6-(3-(difluoromethyl)-1H-1,2,4-triazol-5-yl)imidazo[1,2-a]pyrazine] | 1.7 | 284 | 
7 | Fc1ccccc1Cc1nc(-c2nc(C(F)(F)F)n[nH]2)cn2ncnc12 [Compound I-16, 8-(2-Fluorobenzyl)-6-(3-(trifluoromethyl)-1H-1,2,4-triazol-5-yl)-[1,2,4]triazolo[1,5-a]pyrazine] | 1.6 | 272 | 
